Measured values taken from patent US20230212163A1, “2-(HET)ARYL-SUBSTITUTED CONDENSED HETEROCYCLIC DERIVATIVES AS PEST CONTROL AGENTS” (Bayer Aktiengesellschaft, priority 2020, published 2023).
Where two headings read alike, the source gives them in different places.

Key:
Spodoptera frugiperda = Spodoptera frugiperda spray test (maize leaf discs); type: in vivo; conditions: application rate 100 g/ha, after 7 days; for pest or weed control at 100 g/ha: Spodoptera frugiperda, foliar, 168 h
Method: (§1) [table] To produce a suitable active compound formulation, 1 part by weight of active compound is dissolved using the stated parts by weight of solvent and made up with water containing an emulsifier concentration of 1000 ppm until the desired concentration is attained. To produce further test concentrations, the formulation is diluted with emulsifier-containing water. Leaf discs of maize (Zea mays) are sprayed with an active compound formulation of the desired concentration and, after drying, populated with caterpillars of the fall armyworm (Spodoptera frugiperda). After 7 days, the efficacy in % is determined. 100% means that all the caterpillars have been killed; 0% means that no caterpillar has been killed.

Diabrotica balteata = Diabrotica balteata spray test; type: in vivo; conditions: after 7 days; for pest or weed control at 20 g/ha / pest or weed control at 100 g/ha / pest or weed control at 500 g/ha / pest or weed control at 31.25 g/ha / pest or weed control at 125 g/ha: Diabrotica balteata, 168 h; for pest or weed control at 20 g/ha: application rate 20 g/ha; for pest or weed control at 500 g/ha: application rate 500 g/ha (=160 μg/cavity); for pest or weed control at 500 g/ha / pest or weed control at 31.25 g/ha / pest or weed control at 125 g/ha: read-out: efficacy; for pest or weed control at 31.25 g/ha: application rate 31.25 g/ha (=10 μg/cavity); for pest or weed control at 125 g/ha: application rate 125 g/ha (=40 μg/cavity)
Method: [table] To produce a suitable active compound formulation, 1 part by weight of active compound is dissolved using the stated parts by weight of solvent and made up with water containing an emulsifier concentration of 1000 ppm until the desired concentration is attained. To produce further test concentrations, the formulation is diluted with emulsifier-containing water. Pre-swollen wheat grains (Triticum aestivum) are incubated in a multiwell plate filled with agar and a little water for one day (5 seed grains per cavity). The germinated wheat grains are sprayed with an active compound formulation of the desired concentration. Subsequently, each cavity is infected with 10-20 beetle larvae of Diabrotica balteata. After 7 days, the efficacy in % is determined. 100% means that all wheat plants have grown as in the untreated, uninfected control; 0% means that no wheat plant has grown.

Nezara viridula = Nezara viridula spray test; type: in vivo; conditions: application rate 500 g/ha, after 4 days; for pest or weed control at 500 g/ha: Nezara viridula, 96 h
Method: [table] To produce a suitable active compound formulation, 1 part by weight of active compound is dissolved using the stated parts by weight of solvent and made up with water containing an emulsifier concentration of 1000 ppm until the desired concentration is attained. To produce further test concentrations, the formulation is diluted with emulsifier-containing water. Barley plants (Hordeum vulgare) are sprayed with an active compound formulation of the desired concentration and are infected with larvae of the Southern green shield bug (Nezara viridula). After 4 days, the efficacy in % is determined. 100% means that all of the shield bugs have been killed; 0% means that none of the shield bugs have been killed.

Myzus persicae = Myzus persicae oral test; type: in vivo; conditions: 120 h, application rate 4 ppm, after 5 days, read-out: efficacy
Method: [table] To produce a suitable active compound formulation, 1 part by weight of active compound is dissolved using the specified parts by weight of solvent and made up with water until the desired concentration is attained. 50 μl of the active compound formulation are transferred into microtitre plates and made up to a final volume of 200 μl with 150 μl of IPL41 insect medium (33%+15% sugar). Subsequently, the plates are sealed with parafilm, which a mixed population of green peach aphids (Myzus persicae) within a second microtitre plate is able to puncture and imbibe the solution through. After 5 days, the efficacy in % is determined. 100% means that all the aphids have been killed; 0% means that no aphids have been killed.

[1] = logP by HPLC on reversed-phase column (C18); type: physicochemical; conditions: LC-UV
Method: The logP values were determined according to EEC Directive 79/831 Annex V.A8 by HPLC (high-performance liquid chromatography) on a reversed-phase column (C18) using the following methods: ^[a]The logP value is determined by LC-UV measurement in the acidic range using 0.9 ml/l formic acid in water and 1.0 ml/l formic acid in acetonitrile as mobile phases (linear gradient from 10% acetonitrile to 95% acetonitrile). ^[b]The logP value is determined by LC-UV measurement in the neutral range using 0.001 molar ammonium acetate solution in water and acetonitrile as mobile phases (linear gradient from 10% acetonitrile to 95% acetonitrile). Calibration was carried out using straight-chain alkan-2-ones (having 3 to 16 carbon atoms) with known logP values. The values between successive alkanones are determined by linear regression.

Phaedon cochleariae = Phaedon cochleariae spray test; type: in vivo; conditions: application rate 100 g/ha, after 7 days
Method: as §1, with “water. Discs” for “water. Leaf discs”, “of Chinese cabbage leaves (Brassica pekinensis)” for “of maize (Zea mays)”, “with larvae” for “with caterpillars”, “the mustard beetle (Phaedon cochleariae).” for “the fall armyworm (Spodoptera frugiperda).”, “the beetle larvae” for “the caterpillars”, “no beetle larvae have” for “no caterpillar has”

[2] = neutral range, ammonium acetate/acetonitrile, read-out: logP (neutral)

Question: With `CCS(=O)(=O)c1ccc(-n2ncn(-c3ccc(Cl)cc3)c2=O)nc1-c1nc2cc(C(F)(F)C(F)(F)F)ccc2o1` [Example I-45] as the compound, how does the pest or weed control at 100 g/ha (Spodoptera frugiperda) read?
Answer: 100%

Question: And the pest or weed control at 20 g/ha (Diabrotica balteata)?
Answer: 80%

Question: What about the pest or weed control at 100 g/ha (Diabrotica balteata; application rate 100 g/ha) of the same compound?
Answer: 100%

Question: What about the pest or weed control at 500 g/ha (Nezara viridula) of the same compound?
Answer: 100%

Question: Which pest or weed control at 100 g/ha (Spodoptera frugiperda) does the source give for `CCS(=O)(=O)c1ccc(-n2ncn(-c3cccc(I)c3)c2=O)nc1-c1nc2cc(S(=O)(=O)C(F)(F)F)ccc2o1` [Example I-16] here?
Answer: 100%

Question: What about the pest or weed control at 100 g/ha (Diabrotica balteata; application rate 100 g/ha) of the same compound?
Answer: 100%

Question: And the pest or weed control at 500 g/ha (Diabrotica balteata)?
Answer: 100%

Question: And the pest or weed control at 4 ppm (Myzus persicae)?
Answer: 90%

Question: With `CCS(=O)(=O)c1ccc(-n2ncn(C3CC3C(F)(F)F)c2=O)nc1-c1nc2cc(S(=O)(=O)C(F)(F)F)ccc2o1` (centres unmarked) [Example I-39] as the compound, how does the pest or weed control at 100 g/ha (Spodoptera frugiperda) read?
Answer: 100%

Question: What about the pest or weed control at 100 g/ha (Diabrotica balteata; application rate 100 g/ha) of the same compound?
Answer: 100%

Question: What about the pest or weed control at 500 g/ha (Nezara viridula) of the same compound?
Answer: 100%

Question: Which pest or weed control at 100 g/ha (Spodoptera frugiperda) does the source give for `CCS(=O)(=O)c1ccc(-n2ncn(-c3cccc(Cl)c3)c2=O)nc1-c1nc2cc(C(F)(F)C(F)(F)F)ccc2o1` [Example I-46] here?
Answer: 100%

Question: And the pest or weed control at 20 g/ha (Diabrotica balteata)?
Answer: 100%

Question: What about the pest or weed control at 100 g/ha (Diabrotica balteata; application rate 100 g/ha) of the same compound?
Answer: 80%

Question: And the pest or weed control at 500 g/ha (Nezara viridula)?
Answer: 90%

Question: What does the source list for `CCS(=O)(=O)c1ccc(-n2ncn(-c3ccc(Br)cc3)c2=O)nc1-c1nc2cc(S(=O)(=O)C(F)(F)F)ccc2o1` [Example I-05]?
Answer: pest or weed control at 100 g/ha (Spodoptera frugiperda): 100%; pest or weed control at 31.25 g/ha (Diabrotica balteata): 100%; pest or weed control at 125 g/ha (Diabrotica balteata): 100%; pest or weed control at 500 g/ha (Diabrotica balteata): 100%; pest or weed control at 4 ppm (Myzus persicae): 100%

Question: For `CCS(=O)(=O)c1ccc(-n2ncn(-c3cccc(Cl)c3)c2=O)nc1-c1nc2cc(S(=O)(=O)C(F)(F)C(F)(F)F)ccc2o1` [Example I-41], which pest or weed control at 100 g/ha (Spodoptera frugiperda) is on record?
Answer: 100%

Question: And the pest or weed control at 20 g/ha (Diabrotica balteata)?
Answer: 100%

Question: And the pest or weed control at 100 g/ha (Diabrotica balteata; application rate 100 g/ha)?
Answer: 100%

Question: And the pest or weed control at 500 g/ha (Nezara viridula)?
Answer: 100%

Question: Which chromatographic logP ([1]; acidic range, formic acid in water/acetonitrile, read-out: logP (acidic)) does the source give for `CCSc1ccc(F)nc1-c1nc2cc(S(=O)(=O)C(F)(F)F)ccc2o1` [2-(3-Ethylsulfanyl-6-fluoro-2-pyridyl)-5-(trifluoromethylsulfonyl)-1,3-benzoxazole] here?
Answer: 4.13

Question: Which pest or weed control at 100 g/ha (Spodoptera frugiperda) does the source give for `CCS(=O)(=O)c1ccc(-n2ncn(-c3ccc(F)cc3)c2=O)nc1-c1nc2cc(S(=O)(=O)C(F)(F)C(F)(F)F)ccc2o1` [Example I-52] here?
Answer: 100%

Question: And the pest or weed control at 20 g/ha (Diabrotica balteata)?
Answer: 100%

Question: And the pest or weed control at 100 g/ha (Diabrotica balteata; application rate 100 g/ha)?
Answer: 100%

Question: What about the pest or weed control at 500 g/ha (Nezara viridula) of the same compound?
Answer: 100%

Question: Which results are given for `CCS(=O)(=O)c1ccc(-n2ncn(-c3cccc(Cl)c3)c2=O)nc1-c1nc2cc(S(=O)(=O)C(F)(F)C(F)(F)F)ccc2o1` [Example I-42]?
Answer: activity (Spodoptera frugiperda): 100%; activity (Diabrotica balteata; application rate 100 g/ha): 80%; activity (Nezara viridula): 90%

Question: Which results are given for `CCS(=O)(=O)c1ccc(N2N=CC(c3ccccc3)C2=O)nc1-c1nc2cc(S(=O)(=O)C(F)(F)F)ccc2o1` (centres unmarked) [Example I-01]?
Answer: activity (Phaedon cochleariae): 100%; pest or weed control at 100 g/ha (Spodoptera frugiperda): 100%; pest or weed control at 4 ppm (Myzus persicae): 100%

Question: With `CCS(=O)(=O)c1ccc(F)nc1-c1nc2cc(S(=O)(=O)C(F)(F)F)ccc2o1` [2-(3-Ethylsulfonyl-6-fluoro-2-pyridyl)-5-(trifluoromethylsulfonyl)-1,3-benzoxazole] as the compound, how does the chromatographic logP [1, 2] read?
Answer: 3.11

Question: With `CCS(=O)(=O)c1ccc(-n2ncn(-c3cccc(F)c3)c2=O)nc1-c1nc2cc(S(=O)(=O)C(F)(F)F)ccc2o1` [Example I-14, 2-[5-Ethylsulfonyl-6-[5-(trifluoromethylsulfonyl)-1,3-benzoxazol-2-yl]-2-pyridyl]-4-(3-fluorophenyl)-1,2,4-triazol-3-one] as the compound, how does the pest or weed control at 100 g/ha (Spodoptera frugiperda) read?
Answer: 100%

Question: What about the pest or weed control at 100 g/ha (Diabrotica balteata; application rate 100 g/ha) of the same compound?
Answer: 100%

Question: And the pest or weed control at 500 g/ha (Diabrotica balteata)?
Answer: 100%

Question: What about the pest or weed control at 4 ppm (Myzus persicae) of the same compound?
Answer: 90%

Question: What about the chromatographic logP [1, 2] of the same compound?
Answer: 3.43

Question: Which results are given for `CCS(=O)(=O)c1ccc(-n2ncn(-c3ccc(C#N)cc3)c2=O)nc1-c1nc2cc(S(=O)(=O)C(F)(F)F)ccc2o1` [Example I-06]?
Answer: pest or weed control at 100 g/ha (Spodoptera frugiperda): 100%; pest or weed control at 31.25 g/ha (Diabrotica balteata): 100%; pest or weed control at 125 g/ha (Diabrotica balteata): 100%; pest or weed control at 500 g/ha (Diabrotica balteata): 100%; pest or weed control at 4 ppm (Myzus persicae): 90%

Question: With `CCS(=O)(=O)c1ccc(-n2ncn(-c3cccc(F)c3)c2=O)nc1-c1nc2cc(C(F)(F)C(F)(F)F)ccc2o1` [Example I-47] as the compound, how does the pest or weed control at 100 g/ha (Spodoptera frugiperda) read?
Answer: 100%

Question: And the pest or weed control at 20 g/ha (Diabrotica balteata)?
Answer: 80%

Question: What about the pest or weed control at 100 g/ha (Diabrotica balteata; application rate 100 g/ha) of the same compound?
Answer: 80%

Question: And the pest or weed control at 500 g/ha (Nezara viridula)?
Answer: 100%

Question: With `O=S(=O)(c1ccc2oc(-c3nc(F)ccc3F)nc2c1)C(F)(F)F` [2-(3,6-Difluoro-2-pyridyl)-5-(trifluoromethylsulfonyl)-1,3-benzoxazole] as the compound, how does the chromatographic logP [1, 2] read?
Answer: 3.06

Question: For `CCS(=O)(=O)c1ccc(-n2ncn(-c3cccc(Br)c3)c2=O)nc1-c1nc2cc(C(F)(F)C(F)(F)F)ccc2o1` [Example I-44], which pest or weed control at 100 g/ha (Spodoptera frugiperda) is on record?
Answer: 100%

Question: What about the pest or weed control at 20 g/ha (Diabrotica balteata) of the same compound?
Answer: 80%

Question: And the pest or weed control at 100 g/ha (Diabrotica balteata; application rate 100 g/ha)?
Answer: 100%

Question: What about the pest or weed control at 500 g/ha (Nezara viridula) of the same compound?
Answer: 100%

Question: For `CCS(=O)(=O)c1ccc(-n2ncn(-c3ccc(F)cc3)c2=O)nc1-c1nc2cc(C(F)(F)C(F)(F)F)ccc2o1` [Example I-56], which pest or weed control at 100 g/ha (Spodoptera frugiperda) is on record?
Answer: 100%

Question: And the pest or weed control at 20 g/ha (Diabrotica balteata)?
Answer: 100%

Question: What about the pest or weed control at 100 g/ha (Diabrotica balteata; application rate 100 g/ha) of the same compound?
Answer: 100%

Question: What about the pest or weed control at 500 g/ha (Nezara viridula) of the same compound?
Answer: 100%
